Patent US6191282A, “Substituted 5-membered ring heterocycles comprising a bicyclic or tricyclic group their preparation and their use” (Hoechst Marion Roussel, priority 1993, dated 2001)
Structures can show the parent of a compound that is named as a salt. Where two headings read alike, the source gives them in different places.

Columns and labels:
[1] = test system: gel-filtered human thrombocytes; assay: Inhibition of the aggregation of gel-filtered human thrombocytes following stimulation with ADP or thrombin (Test method 1); assay type: cell-based; conditions: 1 mg/ml fibrinogen, 37° C., GFP from 2-4 donors
Procedure: As a functional test, measurement is made of the inhibition of the aggregation of gel-filtered human thrombocytes, following stimulation with ADP or thrombin, by the compounds according to the invention.
For this purpose, human thrombocytes were isolated from platelet-rich plasma (PRP) by gel filtration on Sepharose 2 B. The resulting suspension of gel-filtered platelets (GFP), which contained 3×10^8 platelets/ml, was activated in the presence of 1 mg/ml of fibrinogen either with 10 μM ADP or with 0.1 U/ml thrombin, and stirred in an aggregometer (PAP 4, Biodata, Hatboro, Penna., USA) at 37° C. and at 1000 revolutions per minute. The maximum increase in the translucency is taken as a measure of the aggregation. The test substances were added to the GFP at 37° C. and 2 min before activating with ADP or thrombin.

[2] = target: T1, isolated fibrinogen receptor (glycoprotein IIb/IIIa) (Homo sapiens, UniProt P05106+P08514); assay: Inhibition of 125I-fibrinogen binding to the isolated, immobilized receptor (glycoprotein IIb/IIIa) (Test method 3); conditions: isolated receptor immobilized in microtitre plates; read-out: Ki, inhibition of the binding of 125I-fibrinogen, ADP-stimulated
T1 construct: isolated from human thrombocytes and immobilized in microtitre plates; from tissue; host or cells: human thrombocytes (platelets), receptor isolated
Procedure: The inhibition of the binding of fibrinogen to its receptor (glycoprotein IIb/IIIa) which is brought about by the compounds according to the invention is tested on the isolated receptor, which was isolated from human thrombocytes and immobilized in microtitre plates.

[3] = Homo sapiens, ADP-stimulated (10 μM ADP), read-out: IC50, inhibition of thrombocyte aggregation, ADP-stimulated
[4] = Homo sapiens, Thrombin-stimulated (0.1 U/ml thrombin), read-out: IC50, inhibition of thrombocyte aggregation, Thrombin-stimulated
[5] = ADP-stimulated (10 μM ADP), read-out: IC50, inhibition of thrombocyte aggregation, ADP-stimulated
[6] = Thrombin-stimulated (0.1 U/ml thrombin), read-out: IC50, inhibition of thrombocyte aggregation, Thrombin-stimulated

T1 sequence (P08514 32-887 limits assumed): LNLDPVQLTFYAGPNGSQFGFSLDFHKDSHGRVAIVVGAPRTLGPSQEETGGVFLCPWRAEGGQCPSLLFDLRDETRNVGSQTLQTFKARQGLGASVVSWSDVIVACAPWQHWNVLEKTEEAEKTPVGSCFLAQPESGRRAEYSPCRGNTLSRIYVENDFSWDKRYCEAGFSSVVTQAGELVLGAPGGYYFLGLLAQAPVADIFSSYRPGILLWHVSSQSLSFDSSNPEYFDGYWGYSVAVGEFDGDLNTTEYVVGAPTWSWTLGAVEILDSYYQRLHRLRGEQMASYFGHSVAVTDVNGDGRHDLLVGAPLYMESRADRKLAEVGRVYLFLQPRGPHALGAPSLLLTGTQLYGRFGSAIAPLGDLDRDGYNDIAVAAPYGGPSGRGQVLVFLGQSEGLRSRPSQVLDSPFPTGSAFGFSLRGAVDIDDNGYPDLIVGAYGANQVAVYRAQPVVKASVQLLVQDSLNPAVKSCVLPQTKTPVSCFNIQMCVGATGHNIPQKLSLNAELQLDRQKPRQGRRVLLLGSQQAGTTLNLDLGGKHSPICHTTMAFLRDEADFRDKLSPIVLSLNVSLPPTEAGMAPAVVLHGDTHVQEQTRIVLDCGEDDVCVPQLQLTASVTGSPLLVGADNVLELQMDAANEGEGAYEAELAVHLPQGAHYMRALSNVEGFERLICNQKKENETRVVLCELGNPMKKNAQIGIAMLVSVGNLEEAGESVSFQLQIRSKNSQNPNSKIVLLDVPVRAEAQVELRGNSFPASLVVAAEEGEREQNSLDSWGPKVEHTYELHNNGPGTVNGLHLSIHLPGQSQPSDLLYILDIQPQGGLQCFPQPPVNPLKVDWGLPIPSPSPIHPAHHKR
T1 sequence (P08514 891-1039 partner limits assumed): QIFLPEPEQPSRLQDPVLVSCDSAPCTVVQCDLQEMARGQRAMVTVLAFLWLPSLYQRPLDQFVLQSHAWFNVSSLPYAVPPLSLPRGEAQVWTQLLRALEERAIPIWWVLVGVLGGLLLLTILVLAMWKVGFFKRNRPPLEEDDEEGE
T1 sequence (P05106 27-788): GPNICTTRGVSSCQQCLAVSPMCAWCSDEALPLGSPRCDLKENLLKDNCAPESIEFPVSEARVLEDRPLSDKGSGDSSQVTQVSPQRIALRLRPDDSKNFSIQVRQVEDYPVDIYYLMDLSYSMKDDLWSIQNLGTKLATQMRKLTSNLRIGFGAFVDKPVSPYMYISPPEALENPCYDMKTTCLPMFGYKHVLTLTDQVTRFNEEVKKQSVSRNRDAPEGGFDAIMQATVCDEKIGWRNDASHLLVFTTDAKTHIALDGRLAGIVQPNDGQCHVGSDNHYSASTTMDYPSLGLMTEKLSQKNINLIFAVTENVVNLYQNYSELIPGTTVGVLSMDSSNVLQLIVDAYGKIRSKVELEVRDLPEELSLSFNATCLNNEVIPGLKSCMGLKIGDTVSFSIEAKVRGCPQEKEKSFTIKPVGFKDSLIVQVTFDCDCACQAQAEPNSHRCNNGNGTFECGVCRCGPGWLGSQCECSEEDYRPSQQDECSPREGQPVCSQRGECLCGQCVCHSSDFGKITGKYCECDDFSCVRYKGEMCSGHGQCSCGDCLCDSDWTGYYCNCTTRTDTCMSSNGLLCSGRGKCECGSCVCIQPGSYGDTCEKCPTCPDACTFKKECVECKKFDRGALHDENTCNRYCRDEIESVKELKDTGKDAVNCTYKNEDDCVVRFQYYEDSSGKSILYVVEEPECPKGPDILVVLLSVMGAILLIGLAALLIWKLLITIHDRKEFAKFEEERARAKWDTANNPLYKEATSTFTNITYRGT

Q: How did the IC50 [1, 3] turn out when `CC1(c2ccc(C(=N)N)cc2)NC(=O)N(CC(=O)NC(CC(=O)O)c2ccccc2)C1=O` (racemic) [Example 13, (R,S)-3-(((R,S)-4-(4-(Aminoiminomethyl)phenyl)-4-methyl-2,5-dioxoimidazolidin-1-yl)acetylamino)-3-phenylpropionic acid hydrochloride] was run?
A: 200 nM

Q: What about the IC50 [1, 4] of the same compound?
A: 200 nM

Q: And the Ki [2]?
A: 0.748 nM

Q: Which IC50 [1, 3] does the source give for `CC1(c2ccc(C(=N)N)cc2)NC(=O)N(CC(=O)NC(CC(=O)O)c2cccc(C(=O)O)c2)C1=O` (racemic) [Example 42, (R,S)-3-(((R,S)-4-(4-(Aminoiminomethyl)phenyl)-4-methyl-2,5-dioxoimidazolidin-1-yl)acetylamino)-3-(3-hydroxycarbonylphenyl)propionic acid] here?
A: 300 nM

Q: What about the IC50 [1, 4] of the same compound?
A: 200 nM

Q: Which IC50 [1, 3] does the source give for `CC1(c2ccc(C(=N)N)cc2)NC(=O)N(CC(=O)NC(CC(=O)O)c2cccc(Oc3ccccc3)c2)C1=O` (racemic) [Example 43, (R,S)-3-(((R,S)-4-(4-(Aminoiminomethyl)phenyl)-4-methyl-2,5-dioxoimidazolidin-1-yl)acetylamino)-3-(3-phenoxyphenyl)propionic acid] here?
A: 500 nM

Q: And the IC50 [1, 4]?
A: 500 nM

Q: What does the source list for `COc1cc(C(CC(=O)O)NC(=O)CN2C(=O)NC(C)(c3ccc(C(=N)N)cc3)C2=O)cc(OC)c1OC` (racemic) [Example 44, (R,S)-3-(((R,S)-4-(4-(Aminoiminomethyl)phenyl)-4-methyl-2,5-dioxoimidazolidin-1-yl)acetylamino)-3-(3,4,5-trimethoxyphenyl)propionic acid]?
A: IC50 [1, 3]: 400 nM; IC50 [1, 4]: 200 nM

Q: How did the IC50 [1, 3] turn out when `CC1(c2ccc(C(=N)N)cc2)NC(=O)N(CC(=O)NC(CC(=O)O)c2ccc(O)cc2)C1=O` (racemic) [Example 45, (R,S)-3-(((R,S)-4-(4-(Aminoiminomethyl)phenyl)-4-methyl-2,5-dioxoimidazolidin-1-yl)acetylamino)-3-(4-hydroxyphenyl)priopionic acid] was run?
A: 200 nM

Q: And the IC50 [1, 4]?
A: 200 nM

Q: Which IC50 [1, 3] does the source give for `CC1(c2ccc(C(=N)N)cc2)NC(=O)N(CC(=O)NC(CC(=O)O)c2cccnc2)C1=O` (racemic) [Example 47, (R,S)-3-(((R,S)-4-(4-(Aminoiminomethyl)phenyl)-4-methyl-2,5-dioxoimidazolidin-1-yl)acetylamino)-3-(3-pyridyl)propionic acid] here?
A: 100 nM

Q: And the IC50 [1, 4]?
A: 150 nM

Q: Which results are given for `CC1(c2ccc(C(=N)N)cc2)NC(=O)N(CC(=O)NC(CC(=O)O)C2CCCCC2)C1=O` (racemic) [Example 49, (R,S)-3-(((R,S)-4-(4-(Aminoiminomethyl)phenyl)-4-methyl-2,5-dioxoimidazolidin-1-yl)acetylamino)-3-cyclohexylpropionic acid]?
A: IC50 [1, 3]: 600 nM; IC50 [1, 4]: 200 nM

Q: Which IC50 [1, 3] does the source give for `CN1C(=O)N(CC(=O)NC(CC(=O)O)c2ccccc2)C(=O)C1(C)c1ccc(C(=N)N)cc1` (racemic) [Example 50, (R,S)-3-(((R,S)-4-(4-(Aminoiminomethyl)phenyl)-3,4-dimethyl-2,5-dioxoimidazolidin-1-yl)acetylamino)-3-phenylpropionic acid] here?
A: 550 nM

Q: What about the IC50 [1, 4] of the same compound?
A: 400 nM

Q: How did the IC50 [1, 3] turn out when `CCN1C(=O)N(CC(=O)NC(CC(=O)O)c2ccccc2)C(=O)C1(C)c1ccc(C(=N)N)cc1` (racemic) [Example 52, (R,S)-3-(((R,S)-4-(4-(Aminoiminomethyl)phenyl)-3-ethyl-4-methyl-2,5-dioxoimidazolidin-1-yl)acetylamino)-3-phenylpropionic acid] was run?
A: 500 nM

Q: And the IC50 [1, 4]?
A: 400 nM

Q: How did the IC50 [1, 3] turn out when `CC1(c2ccc(C(=N)N)cc2)NC(=O)N(CC(=O)NC(CC(=O)O)c2ccc3c(c2)OCO3)C1=O` (racemic) [Example 67, (R,S)-3-(((R,S)-4-(4-(aminoiminomethyl)phenyl)-4-methyl-2,5-dioxoimidazolidin-1-yl)acetylamino)-3-(3,4-methylenedioxyphenyl)propionic acid] was run?
A: 80 nM

Q: What about the IC50 [1, 4] of the same compound?
A: 200 nM

Q: Which IC50 [1, 5] does the source give for `CC1(c2ccc(C(=N)N)cc2)NC(=O)N(CC(=O)N[C@H](CC(=O)O)c2ccccc2)C1=O` (single isomer, unassigned) [Example 59, (R)-3-(((S or R)-4-(4-(aminoiminomethyl)phenyl)-4-methyl-2,5-dioxoimidazolidin-1-yl)acetylamino)-3-phenylpropionic acid] here?
A: 50000 nM

Q: And the IC50 [1, 6]?
A: 40000 nM

Q: With `CC1(c2ccc(C(=N)N)cc2)NC(=O)N(CC(=O)N[C@H](CC(=O)O)c2ccccc2)C1=O` (single isomer, unassigned) [Example 60, (R)-3-(((R or S)-4-(4-(aminoiminomethyl)phenyl)-4-methyl-2,5-dioxoimidazolidin-1-yl)acetylamino)-3-phenylpropionic acid] as the compound, how does the IC50 [1, 5] read?
A: 5000 nM

Q: What about the IC50 [1, 6] of the same compound?
A: 4000 nM

Q: Which IC50 [1, 3] does the source give for `CC1(c2ccc(C(=N)N)cc2)NC(=O)N(CC(=O)NC[C@H](NC(=O)OCc2ccccc2)C(=O)O)C1=O` (stereo partly drawn) [Example 6, 3-(((R,S)-4-(4-(Aminoiminomethyl)phenyl)-4-methyl-2,5-dioxoimidazolidin-1-yl)acetylamino)-2-benzyloxycarbonylaminopropionic acid] here?
A: 2500 nM

Q: What about the IC50 [1, 4] of the same compound?
A: 800 nM

Q: With `CC1(c2ccc(C(=N)N)cc2)NC(=O)N(CC(=O)NC[C@H](N)C(=O)O)C1=O` (stereo partly drawn) [Example 7, 2-Amino-3-(((R,S)-4-(4-(aminoiminomethyl)-phenyl)-4-methyl-2,5-dioxoimidazolidin-1-yl)acetylamino)propionic acid hydrochloride] as the compound, how does the IC50 [1, 3] read?
A: 300 nM

Q: And the IC50 [1, 4]?
A: 300 nM

Q: How did the IC50 [1, 3] turn out when `CC1(c2ccc(CN)cc2)NC(=O)N(CC(=O)N[C@@H](CC(=O)O)C(=O)N[C@H](C(=O)O)c2ccccc2)C1=O` (stereo partly drawn) [Example 8, ((R,S)-4-(4-(Aminomethyl)phenyl)-4-methyl-2,5-dioxoimidazolidin-1-yl)acetyl-L-aspartyl-L-phenylglycine] was run?
A: 150 nM

Q: What about the IC50 [1, 4] of the same compound?
A: 100 nM

Q: How did the IC50 [1, 3] turn out when `N=C(N)c1ccc(CC2NC(=O)N(CC(=O)NC[C@H](NC(=O)OCc3ccccc3)C(=O)O)C2=O)cc1` (stereo partly drawn) [Example 9, 3-(((R,S)-4-(4-(Aminoiminomethyl)benzyl)-2,5-dioxoimidazolidin-1-yl)acetylamino)-2-benzyloxycarbonylaminopropionic acid] was run?
A: 1000 nM

Q: And the IC50 [1, 4]?
A: 500 nM

Q: How did the IC50 [1, 3] turn out when `CC1(c2ccc(NC(=N)N)cc2)NC(=O)N(CC(=O)N[C@@H](CC(=O)O)C(=O)N[C@H](C(=O)O)c2ccccc2)C1=O` (stereo partly drawn) [Example 10, ((R,S)-4-(4-Guanidinophenyl)-4-methyl-2,5-dioxoimidazolidin-1-yl)acetyl-L-aspartyl-L-phenylglycine] was run?
A: 150 nM

Q: What about the IC50 [1, 4] of the same compound?
A: 60 nM

Q: What does the source list for `CC(C)(C)OC(=O)NN(CC(=O)O)C(=O)CN1C(=O)NC(=Cc2ccc(C(=N)N)cc2)C1=O` [Example 20]?
A: IC50 [1, 3]: 2000 nM; IC50 [1, 4]: 1000 nM

Q: Which results are given for `COC(=O)[C@@H](NC(=O)[C@H](CC(=O)O)NC(=O)CN1C(=O)NC(C)(c2ccc(C(=N)N)cc2)C1=O)c1ccccc1` (stereo partly drawn) [Example 23, ((R,S)-4-(4-(Aminoiminomethyl)phenyl)-4-methyl-2,5-dioxoimidazolidin-1-yl)acetyl-L-aspartyl-L-phenylglycine methyl ester]?
A: IC50 [1, 3]: 30 nM; IC50 [1, 4]: 50 nM

Q: How did the IC50 [1, 5] turn out when `CCN1C(=O)N(CC(=O)N[C@@H](CC(=O)O)C(=O)N[C@H](C(=O)O)c2ccccc2)C(=O)C1(C)c1ccc(C(=N)N)cc1` (stereo partly drawn) [Example 24, ((R,S)-4-(4-(Aminoiminomethyl)phenyl)-3-ethyl-4-methyl-2,5-dioxoimidazolidin-1-yl)acetyl-L-aspartyl-L-phenylglycine] was run?
A: 55 nM

Q: What about the IC50 [1, 6] of the same compound?
A: 80 nM

Q: For `CC(C)(C)C1(c2ccc(C(=N)N)cc2)NC(=O)N(CC(=O)N[C@@H](CC(=O)O)C(=O)N[C@H](C(=O)O)c2ccccc2)C1=O` (stereo partly shown) [Example 29], which IC50 [1, 3] is on record?
A: 50 nM

Q: And the IC50 [1, 4]?
A: 40 nM

Q: Which IC50 [1, 3] does the source give for `CC1(c2ccc(C(=N)N)cc2)NC(=O)N(CC(=O)N[C@@H](CC(=O)O)C(=O)NC23CC4CC(CC(C4)C2)C3)C1=O` (stereo partly drawn) [Example 68, (2-((R,S)-4-(4-(aminoiminomethyl)phenyl)-4-methyl-2,5-dioxoimidazolidin-1-yl)acetyl)-L-aspartyl-1-adamantylamide] here?
A: 50 nM

Q: What about the IC50 [1, 4] of the same compound?
A: 45 nM

Q: What does the source list for `CC1(c2ccc(C(=N)N)cc2)NC(=O)N(CC(=O)N[C@@H](CC(=O)O)C(=O)NC2C3CC4CC(C3)CC2C4)C1=O` (stereo partly drawn) [Example 69, (2-((R,S)-4-(4-(Aminoiminomethyl)phenyl)-4-methyl-2,5-dioxoimidazolidin-1-yl)acetyl)-L-aspartyl-2-adamantylamide]?
A: IC50 [1, 3]: 25 nM; IC50 [1, 4]: 45 nM

Q: For `CC1(c2ccc(C(=N)N)cc2)NC(=O)N(CC(=O)N[C@@H](CC(=O)O)C(=O)NCC23CC4CC(CC(C4)C2)C3)C1=O` (stereo partly drawn) [Example 70, (2-((R,S)-4-(4-(Aminoiminomethyl)phenyl)-4-methyl-2,5-dioxoimidazolidin-1-yl)acetyl)-L-aspartyl-(1-adamantylmethyl)amide], which IC50 [1, 3] is on record?
A: 65 nM

Q: What about the IC50 [1, 4] of the same compound?
A: 70 nM
